Laboratory results reported in patent US4585861A, “1,2,4-triazine derivatives” (Eli Lilly and Company, priority 1985, dated 1986).

Experiments:
GABA receptor = test: In vitro activation of GABA binding ([3H]GABA, Triton X-100 treated membrane protein); conditions: average of one or more tests, read-out: SC50 GABA (nanomolar concentration producing a 50% increase in binding)
Protocol: (§1) The novel compounds of this invention were examined for their in vitro ability to activate GABA and benzodiazepine (BZ) binding. To measure the effect of a compound on GABA binding, Triton X-100 (octylphenoxy polyethoxyethanol, Rohm and Haas Co.) treated membrane protein was incubated in the presence of the compound and [^3 H]GABA as detailed by Horng and Wong, J. Neurochemistry, 32 (5), 1379 (1979). To examine BZ binding, H-flunirazepam and the compounds were incubated with native membrane protein as reported by Wong, et al, Brain Res. Bull., 5 (Suppl. 2), 853 (1980). The results in Table 1 are the nanomolar concentrations of compounds (by Example No.) which produced a 50 percent increase (SC50) in GABA or BZ binding. Each result is the average of one or more tests.

benzodiazepine receptor = test: In vitro activation of benzodiazepine (BZ) binding (flunirazepam, native membrane protein); conditions: average of one or more tests, read-out: SC50 BZ (nanomolar concentration producing a 50% increase in binding)
Protocol: as §1

[1] = Metrazole Induced Convulsion Inhibition Assay; assay type: in vivo, Cox standard strain albino male mice; conditions: Mus musculus; oral gavage, 1 h before metrazole 110 mg./kg. i.p.; active = total score of 6 or less (3 mice, range 0-12); read-out: Minimum active oral dose, Metrazole
Protocol: (§2) In this assay, a compound to be tested was suspended in acacia (5%) and administered by gavage to each of three Cox standard strain albino male mice (18-24 grams) at the dose level being investigated. One hour after the oral administration, a water solution of metrazole (pentylenetetrazole) was administered by the intraperitoneal route to each mouse at a dose of 110 mg./kg. […] A score of 0 was assigned to a mouse not showing any signs of convulsant activity; a score of 1 was given to mice developing clonic convulsions; a score of 2 was given to mice showing flexor tonic convulsions; a score of 3 was given to mice showing extensor tonic convulsions; and a score of 4 was given to mice that died within the one hour. The scores of the three mice were totalled for each compound and dose level. The scores can range from 0 to 12; a score of 6 or less was interpreted as indicative of an active compound at that dose level. Values reported in Table 2 below are the minimum oral dose levels (mg./kg.) where activity as defined above was observed.

[2] = Electroshock Induced Convulsion Inhibition Assay; assay type: in vivo, Cox standard strain albino male mice; conditions: Mus musculus; oral; 0.1 second, 50 milliampere corneal electroshock; active = total score of 6 or less; read-out: Minimum active oral dose, Electro-Shock
Protocol: as §2
The drug administration and test conditions used in this assay were similar to those used in the metrazole induced convulsion inhibition assay above except that a 0.1 second, 50 milliampere electroshock through corneal electrodes induced the convulsion instead of metrazole. The animals were examined and evaluated immediately after the electroshock and were scored as before. The results in Table 2 are expressed as the lowest dose of each compound tested which was active as previously defined. For comparison, 18 milliamperes was usually sufficient to produce extensor tonic convulsions in about half of the control animals; at 50 milliamperes, almost all control animals died. Diazepam was active at about 1 mg./kg.

[3] = Appetite Suppression Assay; assay type: in vivo, Cox standard strain albino male mice; conditions: Mus musculus; oral gavage 30 min before feeding; active = weight gain of less than 10% of weight lost on fasting; read-out: Minimum active oral dose, Appetite Suppression
Protocol: In this test, groups of three Cox standard strain albino male mice were weighed (18-24 grams) and then fasted overnight (16-18 hours). The mice were reweighed and then given the test compound in a suspension of acacia (5%) by gavage. Thirty minutes after oral administration, the mice were allowed to eat freely for one hour. After the eating period, the mice were weighed once more. The percent of weight gained (from the time the mice were given the test compound to after the feeding period) compared to weight lost during the fast period was calculated. The non-drug treated control animals gained back 35-55% of the weight lost on fasting. Any compound at the dose level tested which produced a weight gain of less than 10% was considered to be active. The results in Table 2 report the lowest dose level in which there was activity for each compound tested. Dextroamphetamine sulfate is active in this system at about 2.5 mg./kg.

[4] = Mouse Writhing Inhibition Assay; assay type: in vivo, Cox standard strain albino male mice; conditions: oral gavage 60 min before acetic acid 55 mg./kg. i.p., active = less than ten writhes, read-out: Minimum active oral dose, Mouse Writhing
Protocol: Writhing, which is characterized by contraction of the abdominal musculature, extension of the hindlegs, and rotation of the trunk, was induced in Cox standard strain albino male mice. The mice, weighing 18-24 grams, were fasted overnight and given the test compound by gavage in an acacia suspension (5%) 60 minutes before writhing was induced by the intraperitoneal administration of 55 mg./kg. of acetic acid (0.55 percent). Each treatment group consisted of 3 mice. The total number of writhes for the treatment group was determined during a 5-minute observation starting 5 minutes after acetic acid administration.

Structure (SMILES)	EC50 (GABA receptor) [nM]	EC50 (benzodiazepine receptor) [nM]	minimal effective dose [1] [mg/kg]	minimal effective dose [2] [mg/kg]	minimal effective dose [3] [mg/kg]	minimal effective dose [4] [mg/kg]
Cc1ccc(-c2nnc(N3CCCCC3)nc2-c2ccc(C)cc2)cc1 [Example 20, 5,6-bis(4-methylphenyl)-3-(1-piperidinyl)-1,2,4-triazine]	5200	515	12.5	50	12.5	12.5
Cc1ccc(-c2nnc(N3CCCCCC3)nc2-c2ccc(C)cc2)cc1 [Example 21, 1-[5,6-bis(4-methylphenyl)-1,2,4-triazin-3-yl]-hexahydro-1H-azepine]	2000	600	> 200	> 200	> 200	> 200
Cc1ccc(-c2nnc(N3CCCC(O)C3)nc2-c2ccc(C)cc2)cc1 (stereo not drawn) [Example 23, 1-[5,6-bis(4-methylphenyl)-1,2,4-triazin-3-yl]-3-piperidinol]	400	700	50	50	12.5	12.5
CC(=O)OC1CCCN(c2nnc(-c3ccc(C)cc3)c(-c3ccc(C)cc3)n2)C1 (stereo not drawn) [Example 24, 1-[5,6-bis(4-methylphenyl)-1,2,4-triazine-3-yl]-3-piperidinol, acetate (ester)]	160	180	> 200	> 200	> 200	> 200
COC1CCN(c2nnc(-c3ccc(C)cc3)c(-c3ccc(C)cc3)n2)CC1 [Example 26, 3-(4-methoxy-1-piperidinyl)-5,6-bis(4-methylphenyl)-1,2,4-triazine]	80	90	6.2	6.2	6.2	6.2
Cc1ccc(-c2nnc(N3CCC(OC(=O)Oc4ccccc4)CC3)nc2-c2ccc(C)cc2)cc1 [Example 28, carbonic acid, 1-[5,6-bis(4-methylphenyl)-1,2,4-triazin-3-yl]-4-piperidinyl phenyl ester]	160	650	> 200	> 200	> 200	> 200
Cc1ccc(-c2nnc(N3CCC(OC(N)=O)CC3)nc2-c2ccc(C)cc2)cc1 [Example 29, 1-[5,6-bis(4-methylphenyl)-1,2,4-triazin-3-yl]-4-piperidinol, carbamate (ester)]	56	15	> 6.25	> 6.25	0.4	1.56
Cc1ccc(-c2nnc(N3CCC(OS(C)(=O)=O)CC3)nc2-c2ccc(C)cc2)cc1 [Example 32, 1-[5,6-bis(4-methylphenyl)-1,2,4-triazin-3-yl]-4-piperidinol, methane sulfonate (ester)]	68	6	> 6.25	> 6.25	0.4	0.4
Cc1ccc(-c2nnc(N3CCC(OS(=O)(=O)c4ccc(C)cc4)CC3)nc2-c2ccc(C)cc2)cc1 [Example 33, 1-[5,6-bis(4-methylphenyl)-1,2,4-triazin-3-yl]-4-piperidinol, 4-methylbenzene sulfonate (ester)]	8000	1200	> 200	> 200	> 200	> 200
CCOC(=O)C1CCN(c2nnc(-c3ccc(C)cc3)c(-c3ccc(C)cc3)n2)CC1 [Example 35, 1-[5,6-bis(4-methylphenyl)-1,2,4-triazin-3-yl]-4-piperidinecarboxylic acid, ethyl ester]	12	18	> 200	> 200	> 200	> 200
Cc1ccc(-c2nnc(N3CCC4(CC3)OCCO4)nc2-c2ccc(C)cc2)cc1 [Example 38, 8-[5,6-bis(4-methylphenyl)-1,2,4-triazin-3-yl]-1,4-dioxa-8-azaspiro(4.5)decane]	> 10000	8000	> 200	> 200	> 200	> 200
Cc1ccc(-c2nnc(N3CCC(=O)CC3)nc2-c2ccc(C)cc2)cc1 [Example 39, 1-[5,6-bis(4-methylphenyl)-1,2,4-triazin-3-yl]-4-piperidinone]	200	430	50	50	12.5	50
Cc1ccc(-c2ncc(N3CCC(O)CC3)nc2-c2ccc(C)cc2)cc1 [Example 42, 1-[5,6-bis(4-methylphenyl)pyrazin-2-yl]-4-piperidinol]	1200	400	12.5	50	12.5	12.5
CC(=O)OC1CCN(c2cnc(-c3ccc(C)cc3)c(-c3ccc(C)cc3)n2)CC1 [Example 43, 1-[5,6-bis(4-methylphenyl)pyrazin-2-yl]-4-piperidinol, acetate (ester)]	7	10	25	100	25	100
